PubChem BioAssay (NCI)
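Step 1: Grow cells in 96-well plates. Step 2: Expose to compound for 48 hours at 5 concentrations. Step 3: Interpolate endpoints linearly; if unreached, use highest concentration. Here, GI50 denotes the concentration required for 50% inhibition of growth. TGI: concentration producing complete growth inhibition.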

Columns and labels:
Assay in all cases: NCI tumour cell line growth inhibition, 48 h
[1] = test system: HOP-62 NSCLC
[2] = test system: COLO 205 colon
[3] = test system: K-562 leukemia
[4] = test system: HCT-116 colon
[5] = test system: A549 NSCLC
[6] = test system: UACC-62 melanoma
[7] = test system: OVCAR-8 ovarian
[8] = test system: A498 renal
[9] = test system: SNB-19 CNS
[10] = test system: U251 CNS
[11] = test system: DU-145 prostate
[12] = test system: MOLT-4 leukemia
[13] = test system: SN12C renal
[14] = test system: TK-10 renal
[15] = test system: MALME-3M melanoma
[16] = test system: OVCAR-4 ovarian
[17] = test system: NCI-H23 lung
[18] = test system: OVCAR-3 ovarian
[19] = test system: SNB-75 CNS
[20] = test system: CAKI-1 renal
[21] = test system: HS 578T breast
[22] = test system: NCI-H226 lung
[23] = test system: SK-MEL-2 melanoma
[24] = test system: LOX IMVI melanoma
[25] = test system: MDA-MB-231 breast
[26] = test system: NCI-H522 lung
[27] = test system: MCF7 breast
[28] = test system: SR leukemia
[29] = test system: SK-OV-3 ovarian
[30] = test system: SW-620 colon
[31] = test system: HOP-92 NSCLC
[32] = test system: SF-295 CNS
[33] = test system: 786-0 renal
[34] = test system: HCC-2998 colon
[35] = test system: CCRF-CEM leukemia
[36] = test system: NCI/ADR-RES ovarian
[37] = test system: HT29 colon
[38] = test system: SK-MEL-5 melanoma
[39] = test system: EKVX NSCLC
[40] = test system: BT-549 breast
[41] = test system: IGROV1 ovarian
[42] = test system: NCI-H460 lung
[43] = test system: SK-MEL-28 melanoma
[44] = test system: SF-268 CNS
[45] = test system: OVCAR-5 ovarian
[46] = test system: KM12 colon
[47] = test system: RPMI-8226 leukemia
[48] = test system: MDA-MB-435
[49] = test system: RXF 393 renal
[50] = test system: HCT-15 colon
[51] = test system: T-47D breast
[52] = test system: UACC-257 melanoma
[53] = test system: ACHN renal
[54] = test system: SF-539 CNS
[55] = test system: UO-31 renal

`O=C(N/N=C/c1ccccc1O)c1ccccc1O` showed a GI50 [1] of 0.568 µM, a TGI [1] greater than 100 µM and a GI50 [2] of 3.53 µM. For the same compound, the TGI [2] was greater than 100 µM, the GI50 [3] was 2.62 µM and the TGI [3] was greater than 100 µM. For the same compound, the GI50 [4] was 0.325 µM, the TGI [4] was greater than 100 µM and the GI50 [5] was 2.08 µM. The TGI [5] was greater than 100 µM, the GI50 [6] was 0.733 µM and the TGI [6] was greater than 100 µM. For the same compound, the GI50 [7] was 0.618 µM, the TGI [7] was greater than 100 µM and the GI50 [8] was 2.57 µM. The TGI [8] was greater than 100 µM, the GI50 [9] was 2.69 µM and the TGI [9] was greater than 100 µM. It also gave a GI50 [10] of 0.926 µM, a TGI [10] greater than 100 µM and a GI50 [11] of 0.847 µM. The TGI [11] was greater than 100 µM, the GI50 [12] was 0.637 µM and the TGI [12] was greater than 100 µM. The GI50 [13] was 1.44 µM, the TGI [13] was greater than 100 µM and the GI50 [14] was 0.518 µM. For the same compound, the TGI [14] was greater than 100 µM, the GI50 [15] was 12.6 µM and the TGI [15] was greater than 100 µM. It also gave a GI50 [16] of 0.297 µM, a TGI [16] greater than 100 µM and a GI50 [17] of 2.9 µM. The TGI [17] was greater than 100 µM, the GI50 [18] was 0.437 µM and the TGI [18] was greater than 100 µM. The GI50 [19] was 0.39 µM, the TGI [19] was greater than 100 µM and the GI50 [20] was 0.488 µM. For the same compound, the TGI [20] was greater than 100 µM, the GI50 [21] was 8.51 µM and the TGI [21] was greater than 100 µM. For the same compound, the GI50 [22] was 2.43 µM, the TGI [22] was greater than 100 µM and the GI50 [23] was 1.03 µM. For the same compound, the TGI [23] was greater than 100 µM, the GI50 [24] was 0.286 µM and the TGI [24] was greater than 100 µM. For the same compound, the GI50 [25] was 0.676 µM, the TGI [25] was greater than 100 µM and the GI50 [26] was 0.303 µM. For the same compound, the TGI [26] was 17.9 µM, the GI50 [27] was 0.337 µM and the TGI [27] was greater than 100 µM. It also gave a GI50 [28] of 1.74 µM, a TGI [28] greater than 100 µM and a GI50 [29] of 1.75 µM. The TGI [29] was greater than 100 µM, the GI50 [30] was 0.877 µM and the TGI [30] was greater than 100 µM. It also gave a GI50 [31] of 0.804 µM, a TGI [31] greater than 100 µM and a GI50 [32] of 1.27 µM. The TGI [32] was greater than 100 µM, the GI50 [33] was 1.14 µM and the TGI [33] was greater than 100 µM. For the same compound, the GI50 [34] was 1.91 µM, the TGI [34] was greater than 100 µM and the GI50 [35] was 0.499 µM. It also gave a TGI [35] greater than 100 µM, a GI50 [36] of 0.451 µM and a TGI [36] greater than 100 µM. The GI50 [37] was 11.6 µM, the TGI [37] was greater than 100 µM and the GI50 [38] was 1.08 µM. For the same compound, the TGI [38] was 12.8 µM, the GI50 [39] was 2.23 µM and the TGI [39] was greater than 100 µM. For the same compound, the GI50 [40] was 4.44 µM, the TGI [40] was greater than 100 µM and the GI50 [41] was 0.794 µM. It also gave a TGI [41] greater than 100 µM, a GI50 [42] of 0.514 µM and a TGI [42] greater than 100 µM. It also gave a GI50 [43] of 1.92 µM, a TGI [43] greater than 100 µM and a GI50 [44] of 0.802 µM. For the same compound, the TGI [44] was greater than 100 µM, the GI50 [45] was 4.96 µM and the TGI [45] was greater than 100 µM. It also gave a GI50 [46] of 0.766 µM, a TGI [46] greater than 100 µM and a GI50 [47] of 1.7 µM. It also gave a TGI [47] greater than 100 µM, a GI50 [48] of 3.88 µM and a TGI [48] greater than 100 µM. For the same compound, the GI50 [49] was 1.49 µM, the TGI [49] was greater than 100 µM and the GI50 [50] was 0.423 µM. For the same compound, the TGI [50] was greater than 100 µM, the GI50 [51] was 0.418 µM and the TGI [51] was greater than 100 µM. It also gave a GI50 [52] of 0.434 µM, a TGI [52] greater than 100 µM and a GI50 [53] of 0.68 µM. It also gave a TGI [53] greater than 100 µM, a GI50 [54] of 1.74 µM and a TGI [54] greater than 100 µM. It also gave a GI50 [55] of 3.12 µM and a TGI [55] greater than 100 µM.
